Experimental data from US8592457B2, “Isonicotinamide orexin receptor antagonists” (Merck Sharp & Dohme Corp., priority 2008, dated 2013).

Molecular target: OX2R (Homo sapiens (Human), UniProt O43614)
Experiment: radioligand binding assay, OX2 receptor
Conditions: membranes prepared from CHO cells expressing the OX2 receptor
Description: The utility of the compounds in accordance with the present invention as orexin receptor OX1R and/or OX2R antagonists may be readily determined without undue experimentation by methodology well known in the art, including the “FLIPR Ca^2+ Flux Assay” (Okumura et al., Biochem. Biophys. Res. Comm. 280:976-981, 2001). In a typical experiment the OX1 and OX2 receptor antagonistic activity of the compounds of the present invention was determined in accordance with the following experimental method. For intracellular calcium measurements, Chinese hamster ovary (CHO) cells expressing the rat orexin-1 receptor or the human orexin-2 receptor, are grown in Iscove's modified DMEM containing 2 mM L-glutamine, […], 1% hypoxanthine-thymidine supplement, 100 U/ml penicillin, 100 ug/ml streptomycin and 10% heat-inactivated fetal calf serum (FCS). The cells are seeded at 20,000 cells/well into Becton-Dickinson black 384-well clear bottom sterile plates coated with poly-D-lysine. All reagents were from GIBCO-Invitrogen Corp. The seeded plates are incubated overnight at 37° C. and 5% CO2. Ala-6,12 human orexin-A as the agonist is prepared as a 1 mM stock solution in 1% bovine serum albumin (BSA) and diluted in assay buffer (HBSS containing 20 mM HEPES, 0.1% BSA and 2.5 mM probenecid, pH7.4) for use in the assay at a final concentration of […]. Test compounds are prepared as 10 mM stock solution in DMSO, then diluted in 384-well plates, first in DMSO, then assay buffer. On the day of the assay, cells are washed 3 times with 100 ul assay buffer and then incubated for 60 min (37° C., 5% CO2) in 60 ul assay buffer containing 1 uM Fluo-4AM ester, 0.02% pluronic acid, and 1% BSA. The dye loading solution is then aspirated and cells are washed 3 times with 100 ul assay buffer. 30 ul of that same buffer is left in each well. Within the Fluorescent Imaging Plate Reader (FLIPR, Molecular Devices), test compounds are added to the plate in a volume of 25 ul, incubated for 5 min and finally 25 ul of agonist is added. Fluorescence is measured for each well at 1 second intervals for 5 minutes and the height of each fluorescence peak is compared to the height of the fluorescence peak induced by 70 pM Ala-6,12 orexin-A with buffer in place of antagonist. […] Alternatively, compound potency can be assessed by a radioligand binding assay (described in Bergman et. al. Bioorg. Med. Chem. Lett. 2008, 18, 1425-1430) in which the inhibition constant (Ki) is determined in membranes prepared from CHO cells expressing either the OX1 or OX2 receptor. The intrinsic orexin receptor antagonist activity of a compound which may be used in the present invention may be determined by these assays.

Sequence of OX2R (O43614 whole entry): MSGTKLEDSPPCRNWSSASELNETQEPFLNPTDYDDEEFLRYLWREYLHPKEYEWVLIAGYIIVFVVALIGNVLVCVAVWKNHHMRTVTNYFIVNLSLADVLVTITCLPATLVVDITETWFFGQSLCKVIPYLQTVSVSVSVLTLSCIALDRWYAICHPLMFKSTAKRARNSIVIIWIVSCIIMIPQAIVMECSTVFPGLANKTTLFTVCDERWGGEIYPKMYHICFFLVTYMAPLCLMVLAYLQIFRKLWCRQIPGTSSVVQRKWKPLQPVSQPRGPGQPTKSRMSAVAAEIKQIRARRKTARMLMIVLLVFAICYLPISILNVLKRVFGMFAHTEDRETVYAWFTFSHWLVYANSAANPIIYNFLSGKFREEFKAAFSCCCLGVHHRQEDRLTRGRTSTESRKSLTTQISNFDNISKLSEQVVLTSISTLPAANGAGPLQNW

Ki	SMILES
970 pM	COc1nc(CNC(=O)c2cc(-c3cncc(C)c3)ncc2-c2nccs2)ccc1C1CC1 [7-7, N-[(5-cyclopropyl-6-methoxypyridin-2-yl)methyl]-5′-methyl-5-(1,3-thiazol-2-yl)-2,3′-bipyridine-4-carboxamide]
910 pM	COc1ccc(CNC(=O)c2cc(-c3cncc(C)c3)ncc2-c2cccc(F)c2)nc1OC [1-16]
4500 pM	COc1ncc(CNC(=O)c2cc(-c3cncc(C)c3)ncc2-c2cccc(F)c2)nc1OC [1-13]
950 pM	COc1ccc(CNC(=O)c2cc(-c3cncc(C)c3)ncc2-c2nccs2)nc1OC [7-5, N-[(5,6-Dimethoxypyridin-2-yl)methyl]-5′-methyl-5-(1,3-thiazol-2-yl)-2,3′-bipyridine-4-carboxamide]
